Data on two compounds can be found in patent USRE45313E1, “Exendin variant peptides” (priority 1999, dated 2014).

“Also recorded” adds a separate entry of the source. Bounds are passed on as bounds.

For one assay, the system named is ob/ob mice. Briefly: Blood glucose levels in ob/ob mice after peroral and intraperitoneal administration (Example 25). The assay is classed as in vivo. From the text: Forty female diabetic ob/ob mice (Umeä strain, Bomholtgaard), which are obese due to a dominant mutant leptin (Tomita, T., Doull, V., Pollock, H. G., and Krizsan, D. 1992. Pancreatic islets of obese hyperglycemic mice (ob/ob). Pancreas 7: 367-75) were housed (3 mice/cage) under controlled ambient conditions following a 12:12-h light: dark cycle and fed standard Altromin no 1324 diet with free access to tap water. At arrival the animals were 8 weeks of age. The mice were allowed 2 weeks of acclimatization before experiments were initiated. […] Handling of the mice one and three days before the experiment was performed in order to reduce stress-induced BG excursions. On the day of the experiment, blood was taken from the tip of the tail 2-3 hours after the light was turned on. A single drop of blood (<5 μl) was dropped on the glucose strip for analysis and measured by an Elite Autoanalyser, Bayer, Denmark. Whole blood glucose (BG) concentration was analysed by the immobilised glucose oxidase method. […] Six animals with BG <5.8 mM were excluded from the study (total n=36). The remaining animals were stratified based on their BG levels in order to ensure that the mean BG was similar among groups.
Various concentrations of each peptide are administered orally and intraperitoneally to ob/ob mice to determine if these compounds affect blood glucose levels. The experimental conditions used were the same as described in Example 24.
Solutions are prepared on the morning of dosing, immediately before the animals are administered. The same solutions are used for both peroral and interperitoneal administration. All peptides are dissolved in sterile isotonic NaCl and given in a volume of 0.2 ml. As negative control, saline is administered perorally.
In order to analyse the effects of the compounds, the absolute and the relative (% of t=0) difference from baseline was calculated for each time point.

Another assay relates to diabetic ob/ob mice. Briefly: Single dose effect of oral and parenteral administration on blood glucose levels in diabetic ob/ob mice (Example 24). The assay is classed as in vivo. An excerpt:
This was examined using Compound 5 to test the effect on blood glucose (BG) levels in the ob/ob mutant mice after intraperitoneal (i.p.) and peroral (p.o.) administration. […] Forty female diabetic ob/ob mice (Umeä strain, Bomholtgaard), which are obese due to a dominant mutant leptin (Tomita, T., Doull, V., Pollock, H. G., and Krizsan, D. 1992. Pancreatic islets of obese hyperglycemic mice (ob/ob). […] At arrival the animals were 8 weeks of age. The mice were allowed 2 weeks of acclimatization before experiments were initiated. At the time of experiment the mice were 13 weeks old with a body weight of 41.8±3.2 g (mean±SD; n=42). Handling of the mice one and three days before the experiment was performed in order to reduce stress-induced BG excursions. On the day of the experiment, blood was taken from the tip of the tail 2-3 hours after the light was turned on. A single drop of blood (<5 μl) was dropped on the glucose strip for analysis and measured by an Elite Autoanalyser, Bayer, Denmark. Whole blood glucose (BG) concentration was analysed by the immobilised glucose oxidase method. Blood glucose levels varied between normoglycaemia and severe hyperglycaemia (range: 3.6-15.6 mM; mean±SD: 9.4±3.3 mM: n=42). Six animals with BG <5.8 mM were excluded from the study (total n=36). The remaining animals were stratified based on their BG levels in order to ensure that the mean BG was similar among groups. […] Compound 5 (batch nr. ZP 3.12 fraction 1-2. […] The peptide was dissolved in sterile isotonic NaCl shortly before dosing and given in a volume of 0.2 ml. The same solutions were used for both p.o. and i.p. administration. For each animal, a data log sheet was filled out at the time of each blood sampling. […] During control conditions, BG levels in non-fasted ob/ob mice were similar in all groups (individual group data not shown), but within groups, there was a great scatter on BG levels (BG range for all animals: 5.8-15.6 mM). Therefore, to correct for the varying degree of hyperglycemia, results are expressed as the relative difference from baseline (% control). […] In most groups (5/6), BG increased between 4 and 8 hrs after drug administration. Compound 5 reduced the BG levels in a dose of 110 μg/mouse when administered i.p. in diabetic ob/ob mice (data not shown). The antidiabetic effect was observed after 60 minutes and was maximal 2-4 h after administration of the compound. […] Glucagon-like peptide-1 and the entero-insular axis in obese hyperglycaemic (ob/ob) mice.

Consider `CC[C@H](C)[C@H](NC(=O)[C@H](Cc1ccccc1)NC(=O)[C@H](CCC(=O)O)NC(=O)[C@H](CCCCN)NC(=O)[C@H](C)NC(=O)[C@H](C)NC(=O)[C@H](CCC(N)=O)NC(=O)CNC(=O)[C@H](CCC(=O)O)NC(=O)[C@H](CC(C)C)NC(=O)[C@H](Cc1ccc(O)cc1)NC(=O)[C@H](CO)NC(=O)[C@H](CO)NC(=O)[C@@H](NC(=O)[C@H](CC(=O)O)NC(=O)[C@H](CO)NC(=O)[C@@H](NC(=O)[C@H](Cc1ccccc1)NC(=O)[C@@H](NC(=O)CNC(=O)[C@H](CCC(=O)O)NC(=O)CNC(=O)[C@@H](N)Cc1c[nH]cn1)[C@@H](C)O)[C@@H](C)O)C(C)C)C(=O)N[C@@H](C)C(=O)N[C@@H](Cc1c[nH]c2ccccc12)C(=O)N[C@@H](CC(C)C)C(=O)N[C@H](C(=O)N[C@@H](CCCCN)C(=O)NCC(=O)N[C@@H](CCCNC(=N)N)C(=O)N[C@@H](CCCCN)C(=O)N[C@@H](CCCCN)C(=O)N[C@@H](CCCCN)C(=O)N[C@@H](CCCCN)C(=O)N[C@@H](CCCCN)C(=O)N[C@@H](CCCCN)C(N)=O)C(C)C` [Compound 4], for which the “blood glucose relative to baseline” value with ob/ob mice (1 μg po, 1 hour) is 99 % of t=0; in the assay with ob/ob mice (1 μg po, 2 hours), 89 % of t=0; in the assay on ob/ob mice (1 μg po, 4 hours), 84 % of t=0; in the assay with ob/ob mice (10 μg po, 1 hour) it was 98 % of t=0; in the assay with ob/ob mice (10 μg po, 2 hours) it was 95 % of t=0; with ob/ob mice (10 μg po, 4 hours), 81 % of t=0. Also, the “blood glucose relative to baseline” value with ob/ob mice (100 μg ip, 1 hour) was 83 % of t=0; in the assay with ob/ob mice (100 μg ip, 2 hours), 58 % of t=0; in the assay with ob/ob mice (100 μg ip, 4 hours), 56 % of t=0; in the assay with ob/ob mice (100 μg po, 1 hour), 72 % of t=0; in the assay with ob/ob mice (100 μg po, 2 hours), 70 % of t=0; in the assay with ob/ob mice (100 μg po, 4 hours) it was 58 % of t=0. Also, the “blood glucose relative to baseline” value in the assay with ob/ob mice (1000 μg po, 1 hour) is given as 128 % of t=0; with ob/ob mice (1000 μg po, 2 hours) it was 72 % of t=0; with ob/ob mice (1000 μg po, 4 hours), 78 % of t=0.
Turning to `CCCCCCCCCCCCCCCC(=O)NCCCC[C@H](NC(=O)[C@H](CCCNC(=N)N)NC(=O)CNC(=O)[C@H](CCCCN)NC(=O)[C@@H](NC(=O)[C@H](CC(C)C)NC(=O)[C@H](Cc1c[nH]c2ccccc12)NC(=O)[C@H](C)NC(=O)[C@@H](NC(=O)[C@H](Cc1ccccc1)NC(=O)[C@H](CCC(=O)O)NC(=O)[C@H](CCCCN)NC(=O)[C@H](C)NC(=O)[C@H](C)NC(=O)[C@H](CCC(N)=O)NC(=O)CNC(=O)[C@H](CCC(=O)O)NC(=O)[C@H](CC(C)C)NC(=O)[C@H](Cc1ccc(O)cc1)NC(=O)[C@H](CO)NC(=O)[C@H](CO)NC(=O)[C@@H](NC(=O)[C@H](CC(=O)O)NC(=O)[C@H](CO)NC(=O)[C@@H](NC(=O)[C@H](Cc1ccccc1)NC(=O)[C@@H](NC(=O)CNC(=O)[C@H](CCC(=O)O)NC(=O)CNC(=O)[C@@H](N)Cc1c[nH]cn1)[C@@H](C)O)[C@@H](C)O)C(C)C)[C@@H](C)CC)C(C)C)C(=O)N[C@@H](CCCCN)C(=O)N[C@@H](CCCCN)C(=O)N[C@@H](CCCCN)C(=O)N[C@@H](CCCCN)C(=O)N[C@@H](CCCCN)C(=O)N[C@@H](CCCCN)C(N)=O` [Compound 5], the “time of BG nadir after administration” value in the assay on diabetic ob/ob mice (110 μg i.p.) fell in the range of 1 to 2 h. Further, in the assay with diabetic ob/ob mice (110 μg/mouse i.p.), the “duration of effect (long-lasting effect)” value was over 8 h. Moreover, the “effect on blood glucose (BG) levels” value with diabetic ob/ob mice (110 μg/mouse i.p.) is reported as “reduced BG levels; also recorded: sustained decrease in BG; also recorded: effectively lowers BG levels”; with diabetic ob/ob mice (p.o., doses lower than 1100 μg/mouse) it was “not at lower doses”. Besides, the “time at which antidiabetic effect was observed” value in the assay with diabetic ob/ob mice (110 μg/mouse i.p.) came to 60 min. The “time of maximal antidiabetic effect after administration” value in the assay with diabetic ob/ob mice (110 μg/mouse i.p.) lay in the range of 2 to 4 h. Also, the “blood glucose relative to baseline” value was 111 % of t=0 in the assay on ob/ob mice (1 μg po, 1 hour); 133 % of t=0 in the assay on ob/ob mice (1 μg po, 2 hours); 114 % of t=0 with ob/ob mice (1 μg po, 4 hours); 90 % of t=0 in the assay with ob/ob mice (10 μg po, 1 hour); 120 % of t=0 with ob/ob mice (10 μg po, 2 hours); 126 % of t=0 in the assay on ob/ob mice (10 μg po, 4 hours). Moreover, the “blood glucose relative to baseline” value is listed as 63 % of t=0 with ob/ob mice (100 μg ip, 1 hour); 50 % of t=0 in the assay on ob/ob mice (100 μg ip, 2 hours); 52 % of t=0 with ob/ob mice (100 μg ip, 4 hours); 97 % of t=0 in the assay on ob/ob mice (100 μg po, 1 hour); 140 % of t=0 in the assay with ob/ob mice (100 μg po, 2 hours); 107 % of t=0 in the assay with ob/ob mice (100 μg po, 4 hours). Further, the “blood glucose relative to baseline” value in the assay with ob/ob mice (1000 μg po, 1 hour) is 73 % of t=0; in the assay on ob/ob mice (1000 μg po, 2 hours) it was 75 % of t=0; in the assay with ob/ob mice (1000 μg po, 4 hours), 67 % of t=0.
